Reference: paper PMC9959553, “Promising Antifungal Molecules against Mucormycosis Agents Identified from Pandemic Response Box®: In Vitro and In Silico Analyses” (Journal of Fungi, 2023)
Where a SMILES comes first, the peptide text is derived from it.

The compounds below were run on R. oryzae UCP1295 (assay: Screening of the Pandemic Response Box library at 5 µM). Details: 48 h, Table S1, mean of the four values.
Type: cell-based, Rhizopus oryzae
How it was run: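 Growth inhibition was read at 600 nm after conidia (2 × 10^5/mL) grew 48 h at 37 °C, 5% CO2, with 5 μM compound in glucose-supplemented (2%), MOPS-buffered RPMI (pH 7.2). Controls were posaconazole at 5 μM and 1% DMSO. The selection cut-off was at least 60% inhibition.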

SMILES	% of growth inhibition, Mean
O=[N+]([O-])c1cn(Cc2nc(O)nc(O)c2Br)cn1 [MMV1579777]	-6.3%
CCCCCCC1c2ccc(O)cc2Oc2cc(O)ccc21 [MMV1593535]	-3.0%
CC(C)(C)c1cc(C(=O)/C(C#N)=N/Nc2cccc(Cl)c2)no1 [MMV1578571]	-7.2%
CCc1cc(CCCOc2c(C)cc(-c3noc(C(F)(F)F)n3)cc2C)on1 [MMV1634556]	10.0%
O=C1[C@H](CC[C@H](O)c2ccc(F)cc2)[C@@H](c2ccc(O)cc2)N1c1ccc(F)cc1 [MMV1581377]	3.5%
COc1ccc2cc3[n+](cc2c1OCCN(CCn1cncn1)Cc1ccc(F)cc1F)CCc1cc2c(cc1-3)OCO2 [MMV1593540]	-0.6%
CCC[C@@H]1C[C@@H](C(=O)N[C@@H]([C@H]2O[C@H](SC)[C@H](O)[C@@H](O)[C@H]2O)[C@H](C)Cl)N(C)C1.Cl [MMV000051]	-29.6%
OCCCCn1cnc2c(O)nc(NCc3ccc(Cl)c(Cl)c3)nc21 [MMV1593542]	-14.0%
Cc1ccc(NC(=O)c2cc(Cl)ccc2O)cc1 [MMV1578897]	-1.2%
CCCCc1ccc(-c2nc(C)c(C(=O)OC)s2)cc1 [MMV1634392]	-3.4%
COc1cc(C2C3=C(CC(C)(C)CC3=O)Nc3ccccc3N2C(C)=O)ccc1OCc1ccccc1 (centres unmarked) [MMV1634557]	-15.9%
O=C(NCc1ccc2c3c(cccc13)C(=O)N2)c1cccs1 [MMV1341773]	-28.3%
NC(=S)N/N=C/c1ncccc1N [MMV1580496]	-9.1%
COC(=O)Nc1nc2c(C)cccc2[nH]1 [MMV1782387]	-30.6%
C[C@@H](O)[C@H](N)C(=O)NS(=O)(=O)c1cccc(-c2ccc3[nH]ncc3c2)c1.Cl.Cl [MMV1582494]	-14.6%
COc1c(F)c(F)cc2c(=O)c(C(=O)O)cn(C3CC3)c12 [MMV1480967]	-20.4%
O=c1[nH]c(=O)n(Cc2cccc(Oc3ccccc3)c2)cc1Nc1ccccc1 [MMV1782107]	-3.3%
Cc1ccccc1NC(=O)Nc1cccc([N+](=O)[O-])c1 [MMV1581029]	1.6%
CCCCCCCCCN1C[C@@H](O)[C@H](O)[C@@H](O)[C@@H]1CO [MMV1593513]	-2.2%
COc1ccccc1CN[C@H]1C2CCN(CC2)[C@H]1C(c1ccccc1)c1ccccc1 [MMV690480]	-1.8%
O=C(Cn1cnc2ccccc2c1=O)Nc1ccccc1 [MMV1578891]	-16.0%
CC(C)Nc1nc2cc(Cl)c(Cl)cc2n1[C@H]1O[C@@H](CO)[C@H](O)[C@@H]1O [MMV1593521]	-13.4%
O=C(Nc1ccc(F)cc1)c1nn(-c2ccccc2)c(=O)cc1Cl [MMV1578555]	-18.6%
CC(C)CCN1C(=O)C(C2=NS(=O)(=O)c3cc(NS(C)(=O)=O)ccc3N2)=C(O)[C@@H]2[C@H]3CC[C@H](C3)[C@@H]21 [MMV1782220]	6.0%
O=C(O)c1ccccc1Sc1ncnc2sc3c(c12)CCC3 [MMV1579878]	-41.9%
O=C(O)[C@H]1C2CCC(CC2)[C@@H]1Nc1nc(-c2c[nH]c3ncc(F)cc23)ncc1F [MMV1593516]	-10.6%

SMILES	% of growth inhibition, Mean
CN(C)CC(=O)Nc1ccc2[nH]c(=O)c3ccccc3c2c1 [MMV1580480]	-3.9%
CCCC(=O)OCCc1ccccc1 [MMV1578899]	-2.6%
O=C(/C=C\n1cnc(-c2cc(C(F)(F)F)cc(C(F)(F)F)c2)n1)NNc1ccccn1 [MMV1580493]	42.7%
Clc1ccc(Cn2c(CN3CCCC3)nc3ccccc32)cc1 [MMV002015]	-4.7%
C[C@@H](NC(=O)c1ccccc1-c1ccccc1)B(O)O [MMV1582493]	-37.1%
Cc1ncc([N+](=O)[O-])n1CC(C)O (centres unmarked) [MMV002287]	-34.1%
NC(=O)[C@@H]1CC[C@@H]2CN1C(=O)N2OS(=O)(=O)O [MMV1613560]	-12.6%
Cc1oncc1C(=O)Nc1ccc(C(F)(F)F)cc1 [MMV003291]	4.9%
O=C(NO)C1(CS(=O)(=O)c2ccc(Oc3ccc(Cl)cc3)cc2)CCOCC1 [MMV690706]	-11.0%
C=CCN(C(=O)OCc1ccc([N+](=O)[O-])cc1)C1CCN(CC[C@](C)(CN(C)S(=O)(=O)c2ccccc2)c2ccccc2)CC1 [MMV1782214]	14.4%
CCNC(=O)Nc1cn2c(-c3ncc(CC)cn3)cc(-c3cccnc3)cc2n1 [MMV1782403]	-42.7%
Nc1nc(F)nc2c1ncn2[C@@H]1O[C@H](CO)[C@@H](O)[C@@H]1O [MMV637413]	-6.9%
C=C[C@]1(C)C[C@@H](OC(=O)CS[C@@H]2C[C@H]3CC[C@@H](C2)N3C)[C@]2(C)[C@H](C)CC[C@]3(CCC(=O)[C@H]32)[C@@H](C)[C@@H]1O [MMV1633674]	-19.9%
CN(Cc1ccc(C(C)(C)C)cc1)Cc1cccc2ccccc12.Cl [MMV637104]	-30.4%
CCCCSc1nc(N)c2[nH]c(=O)c(=O)n(Cc3ccccc3)c2n1 [MMV1579783]	-34.5%
CN(C)CCCNC(=O)c1ccc(-c2cc(O)c3ncccc3c2)cc1 [MMV1580488]	37.5%
C[Si]1(C)CCN(Cc2cc(-c3ccc(Cl)cc3)n(-c3ccc(Cl)cc3)n2)CC1 [MMV1580843]	-17.9%
COc1ccc(SC(=O)N[C@H](CCC(=O)O)C(=O)O)cc1 [MMV1580846]	-33.5%
Nc1nc(N)c2c(Sc3ccccc3)cccc2n1 [MMV021759]	-3.3%
O=C(NN1C(=O)[C@@H]2C3C=CC([C@H]4C[C@@H]34)[C@@H]2C1=O)c1ccc(C(F)(F)F)cc1 [MMV1782114]	-5.7%
Cc1cccc(C)c1C(=O)Nc1nc(-c2ccccn2)cc2ccccc12 [MMV1581558]	53.3%
Nc1cc(-c2nc3ccccc3[nH]2)n[nH]c1=O [MMV975972]	0.3%
O=C(CCc1ccc2c(c1)OCO2)NCc1ccc(-c2ccccc2F)cc1 [MMV1782110]	-2.8%
Nc1cc(N)c2nc(-c3ccccc3)c(Nc3ccc(F)cc3)nc2c1 [MMV1581554]	-29.5%
COc1ccc(OCc2ccc(COc3c(Cl)cccc3Cl)cc2)c(Cl)c1 [MMV1580485]	-2.8%
O=C(NC1CCCc2c1[nH]c1ccc(Cl)cc21)c1ccccn1 (centres unmarked) [MMV690621]	-11.4%

SMILES	% of growth inhibition, Mean
O=C(c1nc2c(C(F)(F)F)cc(C3CC3)cn2c1Cl)N1CCN([C@H]2CC[C@H](O)CC2)C(=O)C1 [MMV1634396]	-11.9%
O=S(=O)(NCB(O)O)c1ccc(-c2nnn[nH]2)cc1C(F)(F)F [MMV1782411]	-7.7%
Nc1nc(Nc2ccc3nc(-c4ccc(F)cc4)cc(N)c3c2)cc(-c2ccccc2)n1 [MMV1593541]	-21.7%
Nc1nc2c(Cc3cccnc3)c[nH]c2c(=O)[nH]1 [MMV1782355]	-12.7%
Nc1cnn(C2OC(CO)C(O)C2O)c(=O)n1 (centres unmarked) [MMV1580495]	-5.9%
CC(C)c1cc2c(cc1S(=O)(=O)O)[C@@]1(C)CCC[C@@](C)(C(=O)O)[C@@H]1CC2 [MMV1633675]	-25.5%
COc1ccc(NC(=O)CC2Sc3ncnn3C2=O)cc1 (centres unmarked) [MMV1483032]	-13.1%
CNC(=O)C1O[C@@H](n2cnc3c(NCc4cccc(I)c4)nc(Cl)nc32)[C@H](O)[C@@H]1O (some centres unmarked) [MMV1593514]	-5.2%
Clc1cccc(-c2nnc(-c3ccccc3)o2)c1 [MMV141011]	-16.6%
COc1cc(Cc2cnc(N)nc2N)c2c(c1OC)OC(C1CC1)C=C2 (centres unmarked) [MMV1613563]	-6.9%
Cc1c(N)cccc1Cn1ccc(OCCc2cccs2)cc1=O [MMV1578557]	-5.6%
CN(C)c1[nH]c(=O)ncc1F [MMV1782223]	-26.3%
CC(=O)NC[C@H]1CN(c2ccc(N3CCSCC3)c(F)c2)C(=O)O1 [MMV688756]	-8.2%
CCOc1ccc(C(=O)NCCc2ccccc2)cc1 [MMV124656]	-37.8%
Fc1ccc2c(/C=C/c3cccnc3)c[nH]c2c1 [MMV1578889]	-15.1%
CC(C)Nc1ncnc2c1cnn2-c1ccc(Cl)cc1 [MMV108465]	-32.3%
Cc1ccc(N2CCC(CCOc3ccc(S(C)(=O)=O)cc3)CC2)nn1 [MMV1634394]	3.3%
NC1C2CC3CC(C2)CC1C3 (centres unmarked) [MMV180402]	3.0%
COc1ccc2nc(-c3ccccc3)cc(O)c2c1 [MMV011565]	-42.1%
CC(N)C(=O)NC(CCCCN)C(=O)NC(CCCNC(=N)N)C(=O)NC(Cc1c[nH]cn1)C(=O)NC(Cc1c[nH]cn1)C(=O)NCC(=O)NC(Cc1ccc(O)cc1)C(=O)NC(CCCCN)C(=O)NC(CCCNC(=N)N)C(=O)NC(CCCCN)C(=O)NC(Cc1ccccc1)C(=O)NC(Cc1c[nH]cn1)C(N)=O (centres unmarked) [MMV1579849] (H-AKRHHGYKRKFH-NH2; configuration not given here)	-25.8%
Cc1cc(NS(=O)(=O)c2ccc(-c3ccc(F)cc3F)cc2)no1 [MMV1782217]	-29.1%
OB1OCc2cc(Cl)ccc21 [MMV1634363]	-17.9%
COc1cc(C)c2c(Oc3cccc(C(F)(F)F)c3)c(OC)cc(NC(C)CCCN)c2n1.O=C(O)CCC(=O)O (centres unmarked) [MMV000043]	-36.7%
Oc1ccc(NCc2ccccc2OCc2ccccc2)cc1 [MMV1580504]	-5.9%
O=C(NCc1ncc(C(F)(F)F)cc1Cl)c1c(Cl)cccc1Cl [MMV689401]	-36.5%
